Experimental data published in patent publication US12662491B2 (Redona Therapeutics, Inc., priority 2020, dated 2026).

target: T1, Zcchc11 enzyme (Homo sapiens, UniProt Q5TAX3); experiment: TUTase assay (Zcchc11 assay, Lin28a-dependent polyuridylation of pre-let-7); type: biochemical; settings: Lin28a-dependent Zcchc11 (Z11) TUTase activity; read-out: Potency Lin28a-dep Z11 IC50
T1 construct: made in house; host or cells: HEK293 cells (Zcchc11); E. coli Rosetta II (LIN28A)
T1 sequence (Q5TAX3 212-1420): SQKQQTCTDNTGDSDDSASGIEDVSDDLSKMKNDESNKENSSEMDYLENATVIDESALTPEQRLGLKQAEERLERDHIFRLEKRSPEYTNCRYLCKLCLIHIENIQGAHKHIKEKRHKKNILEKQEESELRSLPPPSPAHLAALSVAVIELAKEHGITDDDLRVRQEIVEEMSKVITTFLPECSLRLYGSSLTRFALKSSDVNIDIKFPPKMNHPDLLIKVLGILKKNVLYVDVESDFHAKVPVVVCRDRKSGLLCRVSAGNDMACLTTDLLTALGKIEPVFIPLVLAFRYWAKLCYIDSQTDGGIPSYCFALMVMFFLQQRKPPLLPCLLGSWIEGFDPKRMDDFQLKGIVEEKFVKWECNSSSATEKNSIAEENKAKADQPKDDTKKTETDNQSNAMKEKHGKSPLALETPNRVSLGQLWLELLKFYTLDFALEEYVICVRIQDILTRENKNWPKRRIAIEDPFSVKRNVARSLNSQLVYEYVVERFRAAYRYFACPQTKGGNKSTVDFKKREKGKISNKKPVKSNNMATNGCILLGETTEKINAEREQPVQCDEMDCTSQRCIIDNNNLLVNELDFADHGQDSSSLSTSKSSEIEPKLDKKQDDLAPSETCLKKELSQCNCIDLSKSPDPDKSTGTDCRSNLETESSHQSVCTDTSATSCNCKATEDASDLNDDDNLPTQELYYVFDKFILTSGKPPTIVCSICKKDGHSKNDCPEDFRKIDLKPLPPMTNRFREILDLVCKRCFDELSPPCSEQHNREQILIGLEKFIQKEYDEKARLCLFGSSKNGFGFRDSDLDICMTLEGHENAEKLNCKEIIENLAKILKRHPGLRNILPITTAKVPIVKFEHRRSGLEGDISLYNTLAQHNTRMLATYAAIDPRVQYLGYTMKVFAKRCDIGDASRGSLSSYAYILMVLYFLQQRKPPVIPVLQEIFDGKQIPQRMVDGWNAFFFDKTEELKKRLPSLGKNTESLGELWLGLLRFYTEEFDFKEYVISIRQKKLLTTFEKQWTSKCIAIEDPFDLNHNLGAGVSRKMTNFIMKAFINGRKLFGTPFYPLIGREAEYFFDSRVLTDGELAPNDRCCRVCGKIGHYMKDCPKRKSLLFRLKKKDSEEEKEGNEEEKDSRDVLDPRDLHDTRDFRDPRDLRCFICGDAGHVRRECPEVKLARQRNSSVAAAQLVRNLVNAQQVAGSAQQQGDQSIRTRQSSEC
Procedure, shortened: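 Readout: time-dependent quench of 5′-fluorescein pre-let-7 (2 nM) as 3′-rhodamine A20 probe anneals to poly(U) tails. Enzyme 0.2 nM Zcchc11 (res. 212-1420), LIN28A 10 nM, UTP 5 uM; pH 7.3 HEPES, 150 mM KCl, 5 mM MgCl2, RT. 4-parameter IC50; 100% = DMSO, 0% = no UTP.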

Compound | IC50
Cc1cccc(-n2cc(C(=O)O)c(=O)c3cc(F)c(N4CCC[C@@H]4COc4ccccn4)cc32)c1 [Compound 155, (R)-6-fluoro-4-oxo-7-(2-((pyridin-2-yloxy)methyl)pyrrolidin-1-yl)-1-(m-tolyl)-1,4-dihydro-quinoline-3-carboxylic acid] | ≤ 1 µM
Cc1ccc(-n2cc(C(=O)O)c(=O)c3cc(F)c(N4CCC[C@@H]4COc4ccccn4)cc32)c(C)c1 [Compound 156, (R)-1-(2,4-dimethyl-phenyl)-6-fluoro-4-oxo-7-(2-((pyridin-2-yloxy)methyl)pyrrolidin-1-yl)-1,4-dihydro-quinoline-3-carboxylic acid] | 1 to 10 µM
COc1ccc(Cl)c(-n2cc(C(=O)O)c(=O)c3cc(F)c(N4CCC[C@@H]4COc4ccccn4)cc32)c1 [Compound 157, (R)-1-(2-chloro-5-methoxy-phenyl)-6-fluoro-4-oxo-7-(2-((pyridin-2-yloxy)methyl)pyrrolidin-1-yl)-1,4-dihydro-quinoline-3-carboxylic acid] | 1 to 10 µM
COc1ccc(F)c(-n2cc(C(=O)O)c(=O)c3cc(F)c(N4CCC[C@@H]4COc4ccccn4)cc32)c1 [Compound 158, (R)-6-fluoro-1-(2-fluoro-5-methoxy-phenyl)-4-oxo-7-(2-((pyridin-2-yloxy)methyl)pyrrolidin-1-yl)-1,4-dihydro-quinoline-3-carboxylic acid] | 1 to 10 µM
CC(=O)Nc1ccc(-n2cc(C(=O)O)c(=O)c3cc(F)c(N4CCC[C@@H]4COc4ccccn4)cc32)cc1 [Compound 159, (R)-1-(4-acetamido-phenyl)-6-fluoro-4-oxo-7-(2-((pyridin-2-yloxy)methyl)pyrrolidin-1-yl)-1,4-dihydro-quinoline-3-carboxylic acid] | ≤ 1 µM
O=C(O)c1cn(-c2ccccc2CO)c2cc(N3CCC[C@@H]3COc3ccccn3)c(F)cc2c1=O [Compound 160, (R)-6-fluoro-1-(2-(hydroxy-methyl)phenyl)-4-oxo-7-(2-((pyridin-2-yloxy)methyl)pyrrolidin-1-yl)-1,4-dihydro-quinoline-3-carboxylic acid] | 1 to 10 µM
CCc1ccccc1-n1cc(C(=O)O)c(=O)c2cc(F)c(N3CCC[C@@H]3COc3ccccn3)cc21 [Compound 161, (R)-1-(2-ethylphenyl)-6-fluoro-4-oxo-7-(2-((pyridin-2-yloxy)methyl)pyrrolidin-1-yl)-1,4-dihydro-quinoline-3-carboxylic acid] | 1 to 10 µM
O=C(O)c1cn(-c2ccc(CO)cc2)c2cc(N3CCC[C@@H]3COc3ccccn3)c(F)cc2c1=O [Compound 162, (R)-6-fluoro-1-(4-(hydroxy-methyl)phenyl)-4-oxo-7-(2-((pyridin-2-yloxy)methyl)pyrrolidin-1-yl)-1,4-dihydro-quinoline-3-carboxylic acid] | ≤ 1 µM

Now from value to compound:

IC50 | Compound
1 to 10 µM | O=C(O)c1cn(C2COC2)c2cc(N3CCC[C@@H]3COc3ccccn3)c(F)cc2c1=O [Compound 163, (R)-6-fluoro-1-(oxetan-3-yl)-4-oxo-7-(2-((pyridin-2-yloxy)methyl)pyrrolidin-1-yl)-1,4-dihydro-quinoline-3-carboxylic acid]
10 to 50 µM | O=C(O)c1cn(-c2ccc(O)cc2C(F)(F)F)c2cc(N3CCC[C@@H]3COc3ccccn3)c(F)cc2c1=O [Compound 164, (R)-6-fluoro-1-(4-hydroxy-2-(trifluoro-methyl)phenyl)-4-oxo-7-(2-((pyridin-2-yloxy)methyl)pyrrolidin-1-yl)-1,4-dihydro-quinoline-3-carboxylic acid]
10 to 50 µM | O=C(O)c1cn(C2CC(CO)C2)c2cc(N3CCC[C@@H]3COc3ccccn3)c(F)cc2c1=O (stereo partly drawn) [Compound 165, (R)-6-fluoro-1-(3-(hydroxy-methyl)cyclo-butyl)-4-oxo-7-(2-((pyridin-2-yloxy)methyl)pyrrolidin-1-yl)-1,4-dihydro-quinoline-3-carboxylic acid]
≤ 1 µM | O=C(O)c1cn(-c2ccc(O)cc2)c2cc(N3CCC[C@@H]3COc3ccccn3)c(F)cc2c1=O [Compound 166, (R)-6-fluoro-1-(4-hydroxy-phenyl)-4-oxo-7-(2-((pyridin-2-yloxy)methyl)pyrrolidin-1-yl)-1,4-dihydro-quinoline-3-carboxylic acid]
≤ 1 µM | CN(C)C1CN(c2ccc(-n3cc(C(=O)O)c(=O)c4cc(Cl)c(N5CCC[C@@H]5COc5ncncc5Cl)cc43)cn2)C1 [Compound 167, (R)-6-chloro-7-(2-(((5-chloro-pyrimidin-4-yl)oxy)methyl)pyrrolidin-1-yl)-1-(6-(3-(dimethyl-amino)azetidin-1-yl)pyridin-3-yl)-4-oxo-1,4-dihydro-quinoline-3-carboxylic acid]
≤ 1 µM | Cc1nn(C)cc1-n1cc(C(=O)O)c(=O)c2cc(Cl)c(N3CCC[C@@H]3COc3ncccc3Cl)cc21 [Compound 168, (R)-6-chloro-7-(2-(((3-chloropyridin-2-yl)oxy)methyl)pyrrolidin-1-yl)-1-(1,3-dimethyl-1H-pyrazol-4-yl)-4-oxo-1,4-dihydro-quinoline-3-carboxylic acid]
≤ 1 µM | CN(C)C1CN(c2ccc(-n3cc(C(=O)O)c(=O)c4cc(C#N)c(N5CCC[C@@H]5COc5ncccc5F)cc43)cn2)C1 [Compound 169, (R)-6-cyano-1-(6-(3-(dimethyl-amino)azetidin-1-yl)pyridin-3-yl)-7-(2-(((3-fluoropyridin-2-yl)oxy)methyl)pyrrolidin-1-yl)-4-oxo-1,4-dihydro-quinoline-3-carboxylic acid]
≤ 1 µM | CN(C)C1CN(c2ccc(-n3cc(C(=O)O)c(=O)c4cc(Cl)c(N5CCC6CC65COc5ncccc5Cl)cc43)cn2)C1 (centres unmarked) [Compound 170, 6-chloro-7-(1-(((3-chloropyridin-2-yl)oxy)methyl)-2-azabicyclo [3.1.0]hexan-2-yl)-1-(6-(3-(dimethyl-amino)azetidin-1-yl)pyridin-3-yl)-4-oxo-1,4-dihydro-quinoline-3-carboxylic acid]
> 50 µM | O=C(O)c1cn(-c2ccc(Cl)c(O)c2)c2cc(N3CCC[C@@H]3COc3ncccc3Cl)ccc2c1=O [Compound 171, (R)-1-(4-chloro-3-hydroxy-phenyl)-7-(2-(((3-chloropyridin-2-yl)oxy)methyl)pyrrolidin-1-yl)-4-oxo-1,4-dihydro-quinoline-3-carboxylic acid]
≤ 1 µM | CN(C)C1CN(c2ccc(-n3cc(C(=O)O)c(=O)c4cc(Cl)c(N5CCC[C@@H]5COc5nccn6ccnc56)cc43)cn2)C1 [Compound 172, (R)-6-chloro-1-(6-(3-(dimethyl-amino)azetidin-1-yl)pyridin-3-yl)-7-(2-((imidazo [1,2-a]pyrazin-8-yloxy)methyl)pyrrolidin-1-yl)-4-oxo-1,4-dihydro-quinoline-3-carboxylic acid]
≤ 1 µM | CN(C)C1CN(c2ccc(-n3cc(C(=O)O)c(=O)c4cc(Cl)c(N5CCC[C@@H]5COc5nnccc5Cl)cc43)cn2)C1 [Compound 173, (R)-6-chloro-7-(2-(((4-chloro-pyridazin-3-yl)oxy)methyl)pyrrolidin-1-yl)-1-(6-(3-(dimethyl-amino)azetidin-1-yl)pyridin-3-yl)-4-oxo-1,4-dihydro-quinoline-3-carboxylic acid]
1 to 10 µM | COc1ccc(Cl)c(OCC23CC(CN2c2cc4c(cc2Cl)c(=O)c(C(=O)O)cn4-c2ccc(N)nc2)C3)n1 [Compound 176, 1-(6-aminopyridin-3-yl)-6-chloro-7-(1-[[(3-chloro-6-methoxy-pyridin-2-yl)oxy]methyl]-2-azabicyclo [2.1.1]hexan-2-yl)-4-oxoquinoline-3-carboxylic acid]
